In US5795977A, “Water soluble adenosine kinase inhibitors” (Metabasis Therapeutics, Inc., priority 1996, dated 1998):
Structures can show the parent of a compound that is named as a salt.

Assays:
[1] = biological target: partially purified pig heart adenosine kinase or recombinant human adenosine kinase; test: AK inhibition; format: biochemical; conditions: 0.5 μM [U-14C] adenosine, pH 7.0, 37° C., 20 minutes
Protocol: Adenosine kinase activity was measured essentially as described by Yamada et al. Biochim. Biophys. Acta 660, 36-43 (1988) with a few minor modifications. Assay mixtures contained 50 mM TRIS-maleate buffer, pH 7.0, 0.1% BSA, 1 mM ATP 1 mM MgCl2, 0.5 μM [U-^14 C] adenosine (400-600 mCi/mmol) and varying duplicate concentrations of inhibitor. […] The amount of ^14 C-AMP was quantified by scintillation counting.

[2] = test system: Rats (carrageenan paw); test: Anti-inflammatory activity, carrageenan paw swelling; format: in vivo; conditions: rat, 10 mg/kg, swelling after 3 hours; for Carrageenan Paw (% inhibition) po: oral gavage
Protocol: Carrageenan (Type λ) was suspended in sterile PBS at 1% (w/v), autoclaved for 30 minutes, and stored at room temperature. Rats were pretreated with vehicle or AK inhibitor (10 mg/kg) by oral gavage or i.p. administration and the volume of the left hind paw was measured using a water displacement plethysmometer (Stoelting Co., Wood Dale, Ill.). One hour after oral treatment or 30 minutes after i.p. treatment, the rats were briefly anesthetized, and 0.1 ml of the carrageenan solution was injected subcutaneously into the planar surface of the left hind paw. The ensuing paw swelling was measured by plethysmometry after 3 hours. The paw volume in millileters was […]. Data are presented in Table 2 as the percent inhibition of paw swelling in AK inhibitor treated animals, compared to vehicle treated control animals.

IC50 [1] [nM] | SMILES | Carrageenan Paw (% inhibition) ip [2] [%] | Carrageenan Paw (% inhibition) po [2] [%]
1 | C[C@H]1O[C@@H](n2cc(-c3ccccc3)c3c(Nc4ccc(CCO)cc4)ncnc32)[C@H](O)[C@@H]1O [Compound 2, 4-N-(4-(2-Hydroxyethyl)phenyl)amino-5-phenyl-7-(5-deoxy-β-D-ribofuranosyl)pyrrolo[2,3-d]pyrimidine] | 13.2 | 1.9
 | C[C@H]1O[C@@H](n2cc(-c3ccccc3)c3c(Nc4ccc(CCN5CCNCC5)cc4)ncnc32)[C@H](O)[C@@H]1O [Compound 4, 4-N-[4-(2-(1-piperazino)ethyl)phenyl]amino-5-phenyl-7-(5-deoxy-β-D-ribofuranosyl)pyrrolo[2,3-d]pyrimidine] |  | 2.5
1 | C[C@H]1O[C@@H](n2cc(-c3ccccc3)c3c(Nc4ccc(CCN(C)C)cc4)ncnc32)[C@H](O)[C@@H]1O [Compound 7, 4-N-[4-(2-N,N-dimethylaminoethyl)phenyl]amino-5-phenyl-7-(5-deoxy-β-D-ribofuranosyl)pyrrolo[2,3-d]pyrimidine] | 19.0 | 7.7
1 | NCCc1ccc(Nc2ncnc3c2c(-c2ccccc2)cn3[C@@H]2O[C@@H](CO)[C@@H](O)[C@H]2O)cc1 [Compound 16, 4-N-(4-(2-aminoethyl)phenyl)amino-5-phenyl-7-α-L-lyxofuranosylpyrrolo[2,3-d]pyrimidine] | 31.6 | 12.4
5 | C[C@H]1O[C@@H](n2cc(-c3ccccc3)c3c(Nc4ccc(C(N)=NO)cc4)ncnc32)[C@H](O)[C@@H]1O [Compound 37, 4-N-(4-amidoximephenyl)amino-5-phenyl-7-(5-deoxy-1-β-D-ribofuranosylpyrrolo[2,3-d]pyrimidine hydrochloride] | 17.9 | 23.3
1 | C[C@H]1O[C@@H](n2cc(-c3ccccc3)c3c(Nc4ccc(C(=N)N)cc4)ncnc32)[C@H](O)[C@@H]1O [Compound 39, 4-N -(4-amidinophenyl)amino-5-phenyl-7-(5-deoxy-1-β-ribofuranosyl)pyrrolo[2,3-d]pyrimidine] |  | 
3000 | CC(=O)NS(=O)(=O)c1ccc(Nc2ncnc3c2c(-c2ccccc2)cn3[C@@H]2O[C@H](C)[C@@H](O)[C@H]2O)cc1 [Compound 40, 4-N-[4-(N-acetylaminosulfonyl)phenyl]amino-5-phenyl-7-(5-deoxy-1-β-D-ribofuranosyl)pyrrolo[2,3-d]pyrimidine] |  | 
70 | C[C@H]1O[C@@H](n2cc(I)c3c(NCc4ccccn4)ncnc32)[C@H](O)[C@@H]1O [Compound 41, 4-N-(2-pyridylmethylamino)-5-iodo-7-(5-deoxy-1-β-D-ribofuranosyl)pyrrolo[2,3-d]pyrimidine] |  | 
120 | C[C@H]1O[C@@H](n2cc(I)c3c(NCc4cccnc4)ncnc32)[C@H](O)[C@@H]1O [Compound 44, 4-N-(3-pyridylmethylamino)-5-iodo-7-(5-deoxy-1-β-D-ribofuranosyl)pyrrolo[2,3-d]pyrimidine] |  | 
500 | C[C@H]1O[C@@H](n2cc(I)c3c(NCc4nc5ccccc5[nH]4)ncnc32)[C@H](O)[C@@H]1O [Compound 45, 4-N-(2-benzimidazolylmethyl)amino-5-iodo-7-(5-deoxy-1-β-D-ribofuranosyl) pyrrolo[(2,3-d)]pyrimidine] |  | 
220 | OC[C@@H]1O[C@@H](n2cc(I)c3c(NCc4ccccn4)ncnc32)[C@H](O)[C@@H]1O [Compound 46, 4-N-(2-pyridylmethyl)amino-5-iodo-7-(a-L-lyxofuranosyl)pyrrolo(2,3-d)pyrimidine] |  | 
55 | C[C@H]1O[C@@H](n2cc(-c3cccnc3)c3c(Nc4ccccc4)ncnc32)[C@H](O)[C@@H]1O [Compound 47, 4-N-Phenylamino-5-(3-pyridino)-7-(5-deoxy-1-β-D-ribofuranosyl) pyrrolo[2,3-d]pyrimidine] | 0.0 | 9.8
300 | C[C@H]1O[C@@H](n2cc(-c3cccnc3)c3c(NCc4ccccn4)ncnc32)[C@H](O)[C@@H]1O [Compound 48, 4-N-(2-pyridylmethyl)amino-5-(3-pyridino)-7-(5-deoxy-1-β-D-ribofuranosyl)pyrrolo[2,3-d]pyrimidine] |  | 
80 | C[C@H]1O[C@@H](n2cc(-c3ccccc3)c3c(Nc4ccc(CC(=O)O)cc4)ncnc32)[C@H](O)[C@@H]1O [Compound 186, 4-N-(4-Carboxymethylphenyl)amino-5-phenyl-7-(5-deoxy-1-β-D-ribofuranosyl)pyrrolo[2,3-d]pyrimidine] |  | 
1 | C[C@H]1O[C@@H](n2cc(-c3ccccc3)c3c(Nc4ccc(CC(=O)N5CCNCC5)cc4)ncnc32)[C@H](O)[C@@H]1O [Compound 189] | 30.1 | 12.1
0.35 | C[C@H]1O[C@@H](n2cc(-c3ccccc3)c3c(Nc4ccc(OCC(=O)N5CCNCC5)cc4)ncnc32)[C@H](O)[C@@H]1O [Compound 196, 4-N-[4-(4-piperazinocarbonylmethyloxy)phenyl]amino-5-phenyl-7-(5-deoxy-1-β-D-ribofuranosyl)pyrrolo(2,3-d)pyrimidine] | 11.8 | 0.0
9 | C[C@H]1O[C@@H](n2cc(-c3ccc(CN4CCNCC4)cc3)c3c(Nc4ccc(F)cc4)ncnc32)[C@H](O)[C@@H]1O [Compound 197, 4-N-(4-fluorophenyl)amino-5-[4-(N-piperazinomethyl)phenyl]-7-(5-deoxy-β-D-ribofuranosyl)pyrrolo[2,3-d]pyrimidine] |  | 
120 | C[C@H]1O[C@@H](n2cc(-c3ccc(CN(C)C)cc3)c3c(Nc4ccc(F)cc4)ncnc32)[C@H](O)[C@@H]1O [Compound 198, 4-N-(4-fluorophenyl)amino-5-[4-(dimethylaminomethyl)phenyl]-7-(5-deoxy-β-D-ribofuranosyl)pyrrolo[2,3-d]pyrimidine] |  | 
550 | C[C@H]1O[C@@H](n2cc(-c3ccc(C(=O)N4CCNCC4)cc3)c3c(Nc4ccc(F)cc4)ncnc32)[C@H](O)[C@@H]1O [Compound 199, 4-N-(4-fluorophenyl)amino-5-[4-(N-piperazinocarbonyl)phenyl]-7-(5-deoxy-1-β-D-ribofuranosyl)pyrrolo(2,3-d]pyrimidine hydrochloride salt] |  | 
200 | CCN(CC)CCNC(=O)c1ccc(-c2cn([C@@H]3O[C@H](C)[C@@H](O)[C@H]3O)c3ncnc(Nc4ccc(F)cc4)c23)cc1 [Compound 200, 4-N-(4-fluorophenyl)amino-5-[4-(2-N,N-diethylaminoethyleneaminocarbonyl)phenyl]-7-(5-deoxy-1-β-D-ribofuranosyl)pyrrolo[2,3-d]pyrimidine hydrochloride] |  | 
20 | C[C@H]1O[C@@H](n2cc(-c3ccc(/C=C/C(=O)O)cc3)c3c(Nc4ccc(F)cc4)ncnc32)[C@H](O)[C@@H]1O [Compound 202, 4-N-(4-fluorophenyl)amino-5-[4-(2-carboxy-E-ethenyl)phenyl]-7-(5-deoxy-1-β-D-ribofuranosyl)pyrrolo[2,3-d]pyrimidine] | 3.4 | 3.9
45 | C[C@H]1O[C@@H](n2cc(-c3ccc(CCC(=O)O)cc3)c3c(Nc4ccc(F)cc4)ncnc32)[C@H](O)[C@@H]1O [Compound 204, 4-N-(4-fluorophenyl)amino-5-[4-(2-carboxyethyl)phenyl]-7-(5-deoxy-1-β-D-ribofuranosyl)pyrrolo[2,3-d]pyrimidine] |  | 
7 | C[C@H]1O[C@@H](n2cc(-c3cccc(NC(=N)N)c3)c3c(Nc4ccc(F)cc4)ncnc32)[C@H](O)[C@@H]1O [Compound 206, 4-N-(4-fluorophenyl)amino-5-(3-guanidinophenyl)-7-(5-deoxy-1-β-D-ribofuranosyl)pyrrolo[2,3-d]pyrimidine] | 10.1 | 23.5
80 | C[C@H]1O[C@@H](n2cc(-c3ccccc3)c3c(Nc4ccc(C(=O)O)cc4)ncnc32)[C@H](O)[C@@H]1O [Compound 209, 4-N-(4carboxyphenyl)amino-5-phenyl-7-(5-deoxy-1-β-D-ribofuranosyl)pyrrolo[2,3-d]pyrimidine] | 22.0 | 0.0
6 | C[C@H]1O[C@@H](n2cc(-c3ccccc3)c3c(Nc4ccc(NC(=N)N)cc4)ncnc32)[C@H](O)[C@@H]1O [Compound 269, 4-N-(4-Guanidinophenyl)amino-5-phenyl-7-(5-deoxy-1-β-D-ribofuranosyl)pyrrolo[2,3-d]pyrimidine] |  | 

SMILES | IC50 [1] [nM] | Carrageenan Paw (% inhibition) ip [2] [%] | Carrageenan Paw (% inhibition) po [2] [%]
CC(=O)Nc1ccc(Nc2ncnc3c2c(I)cn3[C@@H]2O[C@H](C)[C@H]3OC(C)(C)O[C@H]32)cc1 [Compound 29, 4-N-[4-(N-acetylamino)phenyl]amino-5-iodo-7-(1-β-D-5-deoxy-2,3-O-isopropylideneribose)pyrrolo[2,3-d]pyrimidine] | 0.5 | 26.1 | 14.9
CCN(CC)CCNC(=O)c1ccc(Nc2ncnc3c2c(-c2ccccc2)cn3[C@@H]2O[C@H](C)[C@@H](O)[C@H]2O)cc1 [Compound 211] | 0.5 |  | 
